# According to patent publication US12509446B2, “FYN and VEGFR2 kinase inhibitors” (ROTTAPHARM BIOTECH S.R.L., priority 2019, dated 2025):
# Where two headings read alike, the source gives them in different places.
# Legend:
# [1] = tested on: COX2; experiment: Gene expression in rat articular chondrocytes under IL-1β stimulation, COX2; format: cell-based; details: for COX2 gene expression, percentage of inhibitory effect at the highest non toxic concentration: 24 h
# [2] = molecular target: Fyn (Homo sapiens (Human), UniProt P06241); experiment: Z′-LYTE in vitro Fyn kinase activity assay; format: biochemical; details: ATP 50 μM; read-out: FYN KINASE INHIBITION IC50
# Experimental: The Fyn kinase inhibitory activity of representative examples of compounds of Formula (1) was evaluated by Z′-LYTE™ Kinase Assay Platform (Invitrogen). Compounds were evaluated towards active Fyn (full length active, molecular weight 87.1 kDa; Invitrogen). […] Samples representing the 0% inhibition (or total enzymatic activity) were in the presence of compound diluent (1% DMSO final in Reaction Buffer 50 mMHepes, 10 mM MgCl2, 1 mM EGTA, 0.01% Brij-35, pH 7.5). The kinase reaction was carried out in a total volume of 10 μl, for 60 minutes at 25° C. The 0% Phosphorylation (i.e. no ATP) and 100% Phosphorylation Assay Controls, included in each plate, allowed to calculate the percent phosphorylation achieved in the specific reaction well. Results are expressed as percentage of inhibition and the IC50 values were calculated by non-linear curve fitting using GraphPad™ Prism software (version 6 for Windows).
# [3] = tested on: MMP13; experiment: Gene expression in rat articular chondrocytes under IL-1β stimulation, MMP13; format: cell-based; design: key to MMP13 gene expression, no effect: ne: no effect; details: 24 h
# Experimental: (§1) For gene expression analysis, 10 days after plating, the medium was changed and substituted with DMEM GlutaMAX I 0.4% to synchronize the cells. The cells were then co-treated in DMEM GlutaMAX I 0.4% with different concentrations of the test compounds and […] at a final concentration of 2 ng/ml for 6 h and 24 h. The test compound concentrations used have been chosen on the basis of the toxicity data.
# (§2) At the end of the incubation, the supernatant was discarded, the cell were washed with cold PBS1X and scraped with 200 μl of RNA lysis buffer 1X (Nucleic Acid Purification Lysis Solution, Applied Biosystems).
# (§3) Total RNA was purified using ABI Prism™ 6100 Nucleic Acid PrepStation (Applied Biosystems) following manufacturer's instructions.
# (§4) Total RNA was retrotranscribed using the High-Capacity cDNA Archive Kit (Applied Biosystems-Thermo Fisher Scientific) following manufacturer's instructions.
# (§5) The specific probes and primers for RealTime PCR were from Applied Biosystems (Thermo Fisher Scientific) as Assays-on-Demand™, while the probe and primers for the endogenous control 18S was a PDAR (Pre-Developed TaqMan® Assay Reagents—Applied Biosystems-Thermo Fisher Scientific).
# (§6) The assays were designed to amplify target cDNA without amplifying genomic DNA.
# (§7) Gene expression analysis for IL-1β, IL-6 and ADAMTS-5 were performed at 6 h incubation, while the gene expression analysis for MMP3, MMP13 and COX2 were performed at 24 h incubation.
# (§8) For each compound the maximal concentration tested was dependent on the toxicity results obtained on primary rat chondrocytes.
# (§9) The data analysis, with the normalisation on the amplified values for the 18S was done following the specific instruction of Applied Biosystems for the relative quantification of gene expression.
# [4] = tested on: IL-6; experiment: Gene expression in rat articular chondrocytes under IL-1β stimulation, IL-6; format: cell-based; details: for IL-6 gene expression, percentage of inhibitory effect at the highest non toxic concentration: 6 h; for IC50: Rattus norvegicus, Chondrocyte, 6 h incubation
# Experimental: as §1, §2, §3, §4, §5, §6, §7, §8, §9
# [5] = tested on: NF-kB; experiment: Gene reporter (GR) assay, NF-kB activation after TNFα in JB6 Cl 41-5a (P+) cells; format: cell-based, murine; design: key to Gene reporter (GR) inhibition, no effect: ne: no effect; details: for IC50: TNFα 2 ng/ml, non toxic concentrations, read-out: Gene reporter (GR) inhibition IC50
# Description: To determine if the compounds of the invention were active also in a cellular model, a gene reporter assay was established in a cell line (JB6 Cl 41-5a (P+)) know to activate Fyn kinase via an inflammatory stimuli (TNFα). GR assay measures the activation of the nuclear transcription factor NF-kB, situated down-stream the Fyn activation pathway. Products active in this analysis has to penetrate in the cell and inhibit the activation pathway of NF-kB.
# The murine epithelial cell line JB6 Cl 41-5a (P+) (ATCC® Cat. #CRL-2010) was stably transfected with the pGL4.32[luc2P/NFkB-RE/Hygro] vector (Promega). Clonal selection was achieved by limiting with 80 μg/ml Hygromycin B. The clones were tested for their response to TNFα stimulus.
# JB6(P+) NFkB-RE-luc2P transfected cells were used for the analysis of NF-kB activity modulation, after TNFα stimulation, by Fyn-inhibitors.
# Cells were pre-treated with the different compounds for 1 h and then stimulated with 2 ng/ml TNFα for 4 h. Each tested condition was analyzed in quadruplicate.
# The luciferase analysis was performed with ONE-Glo™+ToxLuciferase Reporter and Cell Viability Assay kit (Promega).
# [6] = tested on: MMP3; experiment: Gene expression in rat articular chondrocytes under IL-1β stimulation, MMP3; format: cell-based; design: key to MMP3 gene expression, no effect: ne: no effect; details: for MMP3 gene expression, no effect: 24 h
# Experimental: as §1, §2, §3, §4, §5, §6, §7, §8, §9
# [7] = tested on: IL-1β; experiment: Gene expression in rat articular chondrocytes under IL-1β stimulation, IL-1β; format: cell-based; details: for IC50: Rattus norvegicus, Chondrocyte, 6 h incubation
# Experimental: as §1, §2, §3, §4, §5, §6, §7, §8, §9
# [8] = molecular target: VEGFR2 (Homo sapiens (Human), UniProt P35968); experiment: In vitro VEGFR2 kinase activity assay (Eurofins Cerep); format: biochemical; details: read-out: VEGFR2 KINASE INHIBITION IC50
# Experimental: The VEGFR2 kinase inhibitory activity of representative examples of compounds of Formula (I) assays was evaluated in Eurofins Cerep (France). The concentration range of the inhibitors under investigation was from 10^−8 M up to 10^−5 M final concentration. Some compounds were re-tested in a concentration-range starting from 10^−9 M. The results are expressed as a percent of control activity (in the absence of test compound) and the IC50 values were determined by non-linear regression analysis of the inhibition/concentration curves generated with mean replicate values.
# [9] = tested on: ADAMTS-5; experiment: Gene expression in rat articular chondrocytes under IL-1β stimulation, ADAMTS-5; format: cell-based; design: key to ADAMTS-5 gene expression, no effect: ne: no effect
# Experimental: as §1, §2, §3, §4, §5, §6, §7, §8, §9
# [10] = tested on: rat primary articular chondrocytes; experiment: Toxicity analysis (MTT) in rat primary chondrocytes; details: for First toxic concentration at 24 h: rat primary chondrocytes
# Experimental: Purified chondrocytes were resuspended in DMEM glutaMAX 10% and plated in a 96X well plate for toxicity analysis and in a 6X well plate for gene expression analysis.
# For toxicity analysis cells were then treated with the different compounds for 24 and 48 h. At the end of the incubation time, the medium was removed and was substituted with a mixture 10:1 of DMEM glutaMAX 10%—MTT (2 mg/ml) for 1 h at 37° C. in the cell incubator. After this incubation, the precipitated salt was dissolved with 100 μl of DMSO and the plate was read at 540 nm. The toxicity analysis were performed to decide the maximal non toxic concentration of each compound used in the gene expression assay.
# [11] = tested on: bovine nasal septum cartilage; experiment: Inhibition of cartilage degradation (GAG release) induced by IL-1α in a bovine in vitro model; format: cell-based; details: Bos taurus; 3 μM; read-out: Bovine cartilage degradation induced by IL-1α, % inhibitory effect at max concentration
# Experimental: Nasal septum cartilage was collected from an eight months-old male bovine in a local slaughterhouse.
# Tissue was sprayed with ethanol 70% and immediately put in sterile PBS with Antibiotic-Antimycotic stabilized solution (PBS-AASS). It was cut in order to obtain small punches (diameter 2 mm, 1 mm-thick). washed with sterile PBS-AASS, the slices were transferred in a 96X well plate (one piece per well) in DMEM 10%+AASS. 48 h later the cartilage was stimulated in white DMEM+0.1% BSA+AASS with IL-1α […] in the absence or presence of the studied compounds.
# The compounds concentration used in this analysis was chosen depending on the toxicity results obtained in rat primary chondrocytes at 48 h of incubation.
# After 48 h stimulation, the culture medium was collected and stored at −80° C. The cartilage punches were digested with papain at 65° C. for 2 h in phosphate buffer (0.05M pH 6.5 with 2 mM N-acetil-L-cisteine and 2 mM EDTA).
# The glycosaminoglycan (GAG) determination was done by a colorimetric assay with 1,9 dimethyl methylene blue (DMB).
# Digested cartilage samples were diluted in PBS-BSA 1%. To 100 μl of diluted samples or standard we added 100 μl DMB 2X. After 5-20 min incubation the samples were read at 590 nm (Titertek Multiscan Plus).
# The cartilage degradation induced by IL-1α was expressed as: GAG (medium)/total GAG (medium+cartilage)×100
# [12] = Rattus norvegicus, Chondrocyte, 24 h incubation
# Chain of VEGFR2 (P35968 20-1356): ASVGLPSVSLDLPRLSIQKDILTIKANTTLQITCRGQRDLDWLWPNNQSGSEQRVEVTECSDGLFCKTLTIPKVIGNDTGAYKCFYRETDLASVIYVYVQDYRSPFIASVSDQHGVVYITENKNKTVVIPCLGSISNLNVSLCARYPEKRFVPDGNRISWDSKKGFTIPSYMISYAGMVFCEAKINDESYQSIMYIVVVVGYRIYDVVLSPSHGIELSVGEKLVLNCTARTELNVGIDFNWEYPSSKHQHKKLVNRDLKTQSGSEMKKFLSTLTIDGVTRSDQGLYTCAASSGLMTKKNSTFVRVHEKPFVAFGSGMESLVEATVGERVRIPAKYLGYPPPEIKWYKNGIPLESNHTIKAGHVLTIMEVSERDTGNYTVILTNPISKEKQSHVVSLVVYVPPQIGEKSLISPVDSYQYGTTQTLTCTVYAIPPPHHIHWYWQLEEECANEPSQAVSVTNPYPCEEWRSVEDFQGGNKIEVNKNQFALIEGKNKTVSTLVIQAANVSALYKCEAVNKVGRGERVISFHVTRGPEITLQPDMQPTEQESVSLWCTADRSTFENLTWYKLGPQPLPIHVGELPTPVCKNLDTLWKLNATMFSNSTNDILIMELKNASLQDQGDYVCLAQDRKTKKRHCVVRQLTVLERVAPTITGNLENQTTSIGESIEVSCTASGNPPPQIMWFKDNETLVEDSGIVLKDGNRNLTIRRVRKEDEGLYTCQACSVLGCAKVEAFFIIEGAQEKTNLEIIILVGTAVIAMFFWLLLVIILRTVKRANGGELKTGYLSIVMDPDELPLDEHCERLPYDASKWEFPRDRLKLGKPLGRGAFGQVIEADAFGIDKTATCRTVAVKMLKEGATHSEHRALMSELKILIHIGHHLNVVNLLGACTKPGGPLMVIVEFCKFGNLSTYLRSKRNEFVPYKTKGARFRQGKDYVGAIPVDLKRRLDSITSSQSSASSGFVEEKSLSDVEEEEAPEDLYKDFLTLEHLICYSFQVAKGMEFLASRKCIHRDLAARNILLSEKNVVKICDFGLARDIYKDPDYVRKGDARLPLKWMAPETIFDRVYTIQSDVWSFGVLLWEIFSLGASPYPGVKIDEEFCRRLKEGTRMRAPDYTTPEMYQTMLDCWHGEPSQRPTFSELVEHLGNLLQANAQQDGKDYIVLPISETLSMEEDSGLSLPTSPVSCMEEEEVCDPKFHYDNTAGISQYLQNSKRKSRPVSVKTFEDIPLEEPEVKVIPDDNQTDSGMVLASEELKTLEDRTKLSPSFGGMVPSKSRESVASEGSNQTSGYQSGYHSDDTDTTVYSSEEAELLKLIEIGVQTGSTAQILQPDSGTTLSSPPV
# Chain of Fyn (P06241 whole entry): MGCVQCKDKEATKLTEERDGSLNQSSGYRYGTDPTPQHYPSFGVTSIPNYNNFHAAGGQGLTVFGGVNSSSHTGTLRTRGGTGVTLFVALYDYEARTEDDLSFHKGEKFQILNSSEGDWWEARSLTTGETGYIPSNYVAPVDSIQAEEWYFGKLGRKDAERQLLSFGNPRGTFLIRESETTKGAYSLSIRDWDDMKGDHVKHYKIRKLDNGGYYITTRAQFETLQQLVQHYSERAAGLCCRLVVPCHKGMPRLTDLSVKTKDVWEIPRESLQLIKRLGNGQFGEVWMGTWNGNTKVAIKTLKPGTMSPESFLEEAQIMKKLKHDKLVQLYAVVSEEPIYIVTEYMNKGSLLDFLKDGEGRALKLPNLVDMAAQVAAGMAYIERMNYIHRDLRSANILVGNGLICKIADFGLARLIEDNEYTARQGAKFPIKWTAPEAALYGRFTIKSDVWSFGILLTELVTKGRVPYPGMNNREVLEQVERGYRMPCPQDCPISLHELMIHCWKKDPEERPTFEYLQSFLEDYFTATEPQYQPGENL
Structure (SMILES),IC50 [2],"IC50 ([5]; Mus musculus, JB6 Cl 41-5a)","MMP3 gene expression, no effect [6]",IC50 [7],IC50 [8],First toxic concentration at 24 h [10],further results
"Cc1ccc(NC(=O)c2cc(S(=O)(=O)C3CC3)ccn2)cc1CCc1cc(Nc2cnccn2)[nH]n1 [Compound 8, 4-(cyclopropylsulfonyl)-N-(4-methyl-3-(2-(5-(pyrazin-2-ylamino)-1H-pyrazol-3-yl)ethyl)phenyl)picolinamide]",20 nM,< 250 nM,ne,300 nM,< 10 nM,3 µM,"COX2 gene expression, percentage of inhibitory effect at the highest non toxic concentration ([1]; 1 μM): 1 μM 63%; MMP13 gene expression, no effect [3]: ne; IL-6 gene expression, percentage of inhibitory effect at the highest non toxic concentration ([4]; 1 μM): 1 μM 99%; IC50 [5]: 233 nM; ADAMTS-5 gene expression, no effect ([9]; 6 h): ne"
"Cc1nc(C#N)cc(Nc2cc(CCc3cc(NC(=O)c4ccc(CN(C)C)c(C(F)(F)F)c4)ccc3F)n[nH]2)n1 [Compound 39, N-(3-(2-(5-((6-cyano-2-methylpyrimidin-4-yl)amino)-1H-pyrazol-3-yl)ethyl)-4-fluorophenyl)-4-((dimethylamino)methyl)-3-(trifluoromethyl)benzamide]",1 nM,1060 nM,,,11 nM,10 µM,"COX2 gene expression, percentage of inhibitory effect at the highest non toxic concentration ([1]; 3 μM): 3 μM 99%; MMP13 gene expression, percentage of inhibitory effect at the highest non toxic concentration ([3]; 3 μM): 3 μM 90%; IL-6 gene expression, percentage of inhibitory effect at the highest non toxic concentration ([4]; 3 μM): 3 μM 100%; IC50 [6, 12]: 1200 nM; IL-1β gene expression, percentage of inhibitory effect at the highest non toxic concentration ([7]; 3 μM, 6 h): 3 μM 100%; IC50 ([9]; Rattus norvegicus, Chondrocyte, 6 h incubation): 500 nM"
"Cc1ccc(NC(=O)c2cc(C(F)(F)F)ccc2F)cc1CCc1cc(Nc2cnccn2)[nH]n1 [Compound 7, 2-fluoro-N-(4-methyl-3-(2-(5-(pyrazin-2-ylamino)-1H-pyrazol-3-yl)ethyl)phenyl)-5-(trifluoromethyl)benzamide]",63 nM,1160 nM,ne,100 nM,< 10 nM,3 µM,"COX2 gene expression, percentage of inhibitory effect at the highest non toxic concentration ([1]; 1 μM): 1 μM 41%; MMP13 gene expression, percentage of inhibitory effect at the highest non toxic concentration ([3]; 1 μM): 1 μM 38%; IC50 [4]: 200 nM; ADAMTS-5 gene expression, percentage of inhibitory effect at the highest non toxic concentration ([9]; 1 μM, 6 h): 1 μM 81%"
"Cc1nc(CN2CCOCC2)cc(Nc2cc(CCc3cc(NC(=O)c4cccc(C(F)(F)F)c4)ccc3F)[nH]n2)n1 [Compound 26, N-(4-fluoro-3-(2-(3-((2-methyl-6-(morpholinomethyl)pyrimidin-4-yl)amino)-1H-pyrazol-5-yl)ethyl)phenyl)-3-(trifluoromethyl)benzamide]",12 nM,,,,< 10 nM,,"inhibition at 3 µM ([5]; Mus musculus, JB6 Cl 41-5a, 3 μM, read-out: Gene reporter (GR) inhibition % effect at max concentration): 50%"
"Cc1ccc(NC(=O)c2cccc(S(C)(=O)=O)c2)cc1CCc1cc(Nc2cnccn2)[nH]n1 [Compound 1, N-(4-methyl-3-(2-(5-(pyrazin-2-ylamino)-1H-pyrazol-3-yl)ethyl)phenyl)-3-(methylsulfonyl)benzamide]",,5080 nM,ne,2100 nM,,>10 µM,"IC50 [1, 12]: 3100 nM; MMP13 gene expression, percentage of inhibitory effect at the highest non toxic concentration ([3]; 10 μM): 10 μM 38%; IC50 [4]: 1600 nM; ADAMTS-5 gene expression, percentage of inhibitory effect at the highest non toxic concentration ([9]; 10 μM, 6 h): 10 μM 38%; inhibition at 3 µM [11]: 88%; First toxic concentration at 48 h in rat primary chondrocytes ([10]; 48 h): 10 µM"
"Cc1nc(Nc2cc(CCc3cc(NC(=O)c4cccc(C(F)(F)F)c4)ccc3F)[nH]n2)cc(-c2cnn(CCO)c2)n1 [Compound 42, N-(4-fluoro-3-(2-(3-((6-(1-(2-hydroxyethyl)-1H-pyrazol-4-yl)-2-methylpyrimidin-4-yl)amino)-1H-pyrazol-5-yl)ethyl)phenyl)-3-(trifluoromethyl)benzamide]",13 nM,,,,20 nM,,"inhibition at 10 µM ([5]; Mus musculus, JB6 Cl 41-5a, 10 μM, read-out: Gene reporter (GR) inhibition % effect at max concentration): 56%"
"CN(C)Cc1ccc(C(=O)Nc2cccc(CCc3cc(NC(=O)c4ccc(N5CCOCC5)cc4)[nH]n3)c2)cc1 [Compound 47, 4-((dimethylamino)methyl)-N-(3-(2-(5-(4-morpholinobenzamido)-1H-pyrazol-3-yl)ethyl)phenyl)benzamide]",10 nM,,,,10 nM,,"Gene reporter (GR) inhibition, no effect [5]: ne"
